Experimental data from paper PMC6273912, “Novel 5-Substituted 2-(Aylmethylthio)-4-chloro-N-(5-aryl-1,2,4-triazin-3-yl)benzenesulfonamides: Synthesis, Molecular Structure, Anticancer Activity, Apoptosis-Inducing Activity and Metabolic Stability” (Molecules, 2016).

Experiments:
[1] = Metabolic stability with human liver microsomes and NADPH; assay type: in vitro ADME; conditions: liver microsomes, pH 7.4, human liver microsomes 0.5 mg/mL, 1 mM NADPH, 10 μM compound, pH 7.4, 37 °C, up to 60 min, read-out: In Vitro Metabolic Half-Life t1/2
Method: Stock solutions of studied compounds were prepared at concentration of 10 mM in DMSO. […] Incubation mixture contained 10 μM of a studied derivative, 1 mM of NADPH (Sigma-Aldrich) and 0.5 mg/mL of human liver microsomes (HLM, Sigma-Aldrich) in potassium phosphate buffer (0.1 M, pH 7.4). Incubation was carried out in thermostat at 37 °C and started by addition of studied compound. 50 μL samples were taken after 5, 15, 30, 45 and 60 min. Enzymatic reaction was terminated by the addition of the equal volume of ice-cold acetonitrile containing 10 μM of alprazolam (Sigma-Aldrich) serving as internal standard (IS). Control incubations were performed without NADPH to assess chemical instability. After collection, samples were immediately centrifuged (10 min, 10,000 rpm) and resulted supernatant was directly analyzed or kept in −80 °C until LC-MS analysis. Natural logarithm of a compound over IS peak area ratio was plotted versus incubation time. Metabolic half-time (t1/2) was calculated from the slope of the linear regression, as reported in [48].
LC-MS analysis was performed on an Agilent 1260 system coupled to SingleQuad 6120 mass spectrometer (Agilent Technologies, Santa Clara, CA, USA). Ascentis Express ES-CN (2.1 mm × 100 mm, 2.7 μm, Supelco Analytical, Bellefonte, PA, USA) was used in reversed-phase mode with gradient elution starting with 50% of phase A (10 mM ammonium formate in water) and 50% of phase B (10 mM ammonium formate in acetonitrile-water mixture, 95:5 v/v). […] Total analysis time was 10 min at 25 °C, flow rate was 0.4 mL/min and the injection volume was 20 μL. The mass spectrometer was equipped with electrospray ion source and operated in positive ionization. Mass analyzer was set individually to each compound to detect [M + H]^+ pseudomolecular ions. MSD parameters of the ESI source were as follows: nebulizer pressure 50 psig (N2), drying gas […] (N2), drying gas temperature 300 °C, capillary voltage 3.5 kV, fragmentor voltage 100 V.

[2] = tested on: MCF-7 (breast cancer); experiment: MTT cell viability assay, MCF-7; assay type: cell-based, human; conditions: Homo sapiens, MCF7, 72 h of incubation, mean ± SD
Method: All chemicals, if not stated otherwise, were obtained from Sigma-Aldrich (St. Louis, MO, USA). The MCF-7 cell line was purchased from Cell Lines Services (Eppelheim, Germany), the HeLa and HCT-116 cell lines were obtained from the Department of Microbiology, Tumor and Cell Biology, Karolinska Institute (Stockholm, Sweden). Cells were cultured in Dulbecco’s modified Eagle’s medium (DMEM) supplemented with 10% fetal bovine serum, 2 mM glutamine, 100 units/mL penicillin, and 100 μg/mL streptomycin. Cultures were maintained in a humidified atmosphere with 5% CO2 at 37 °C in an incubator (HeraCell, Heraeus, Langenselbold, Germany).
Cell viability was determined using the MTT (3-(4,5-dimethylthiazol-2-yl)-2,5-diphenyl-tetrazoliumbromide) assay. Stock solutions of the studied compounds were prepared in 100% DMSO. […] Cells were seeded in 96-well plates at a density of 5 × 10^3 cells/well and treated for 72 h with the examined compounds in the concentration range 1–100 μM (1, 10, 25, 50 and 100 μM). Following treatment, MTT (0.5 mg/mL) was added to the medium and cells were further incubated for 2 h at 37 °C. Cells were lysed with DMSO and the absorbance of the formazan solution was measured at 550 nm with a plate reader (1420 multilabel counter, Victor, Jügesheim, Germany). […] The experiment was performed in triplicate. Values are expressed as the mean ± SD of at least three independent experiments.

Cc1cc(S(=O)(=O)Nc2nncc(-c3ccc(C(F)(F)F)cc3)n2)c(SCc2cccc3ccccc23)cc1Cl [Compound 37, 4-Chloro-5-methyl-2-[(naphthalene-1-yl)methylthio]-N-[5-(4-trifluoromethylphenyl)-1,2,4-triazin-3-yl]-benzenesulfonamide]
half-life at 10 μM [1]: 32.8 min
IC50 [2]: 70 ± 3 µM
